{
  "source": "patent US11007385B2",
  "about": "“Use of cellular extracts for skin rejuvenation” (Regenics AS, priority 2012, dated 2021)",
  "key": {"[1]": {"system": "human skin fibroblasts (hSF)", "experiment": "Collagen secretion from human skin fibroblasts (Biocolor Sircol collagen assay)", "format": "cell-based", "conditions": "for Collagen Abs / Collagen/cell / Coll/cell % change: 8 days", "method": "LEX 42 and different concentrations of retinoic acid (0.01M and 0.1M) are applied to fibroblasts (HsF cells) in vitro and collagen production and secretion is measured. Briefly, on day 0, fibroblasts are seeded in 25 cm^2 cell culture flasks at a density of 2.8×10^5 cells per flask. On day 1, the culture media is replaced with fresh culture media supplemented with 0.5% LEX, 0.01M RA, or 0.1M RA. Control cells are grown with cell culture medium without LEX or RA. The cultures are continued for seven days, with a media (LEX/RA/control) change at day 4. On day 8, the cells are washed 3× with PBS before adding cell culture medium with low serum (1% FBS). On day 9, the culture medium (1.4 ml) is harvested and collagen content assessed using a collagen kit (Biocolor, on eht world wide web at biocolor.co.uk/index.php/assay-kits/sircol-1/). The absorbance is measured with Nanodrop 2000c (Thermo).\nLEX 51 was applied to fibroblasts (HsF cells) in vitro, and collagen production and secretion was assayed. The procedure was as described above, except with the modification of the assay on day 10, were 2 ml of the culture medium is harvested and collagen content assessed using a collagen kit (Biocolor, biocolor.co.uk/index.php/assay-kits/sircol-1/), with the adaptation of isolating collagen from 2 ml of culture medium compared to 1 ml as described in the kit manual. The absorbance is measured at 550 nm (the base line was set to 750 nm) with the Nanodrop 2000 (Thermo)\nCollagen assay from Biocolor was used to analyze the effect of LEX on hSF (fibroblast). This assay measures the produced and secreted collagen from hSF (fibroblasts). The measurements from un-stimulated control was compared to LEX stimulated hSF (fibroblasts) and noted as fold induction.\nThe level of collagen was measured after 8 days of treatment with 0% or 0.5% reconstituted freeze dried salmon egg extract I in complete growth medium supplemented with 10% FBS. Ascorbic acid (1 μg/ml) and 0.5% salmon egg extract I was used as positive controls."}, "[2]": {"system": "human skin fibroblasts (hSF)", "experiment": "Proliferation / cell number of human skin fibroblasts", "format": "cell-based", "design": "increase in cell number: unit not given here", "conditions": "8 days; for Cell % change: vs control"}},
  "note": "“And” between values parts separate entries of the source, which are not always exact repeats. Equal values may be shown once.",
  "data": [
    {"smiles": "CC1=C(/C=C/C(C)=C/C=C/C(C)=C/C(=O)O)C(C)(C)CCC1", "note": "[RA, retinoic acid]", "values": [
      {"measurement": "Collagen Abs", "setting": "[1]; 0.01 μM RA", "value": 0.046},
      {"measurement": "Collagen/cell", "setting": "[1]; 0.01 μM RA", "value": "4.7925E−08"},
      {"measurement": "Coll/cell % change", "setting": "[1]; 0.01 μM RA, vs control", "value": "−16.5", "unit": "%"},
      {"measurement": "Collagen Abs", "setting": "[1]; 0.1 μM RA", "value": 0.046},
      {"measurement": "Collagen/cell", "setting": "[1]; 0.1 μM RA", "value": "5.077E−08"},
      {"measurement": "Coll/cell % change", "setting": "[1]; 0.1 μM RA, vs control", "value": "−11.5", "unit": "%"},
      {"measurement": "decrease of collagen per cell", "setting": "[1]; 0.1 μM RA, vs control", "value": 11.5, "unit": "%"},
      {"measurement": "decrease of collagen produced per cell", "setting": "[1]; 0.01M RA, vs control", "value": 16.5, "unit": "%"},
      {"measurement": "fold change of collagen produced per cell compared to control cultures", "setting": "[1]; RA cultures (0.01M and 0.1M), eight days", "value": "0.84 and 0.89"},
      {"measurement": "final # of cells", "setting": "[2]; 0.01 μM RA", "value": 959833},
      {"measurement": "Cell % change", "setting": "[2]; 0.01 μM RA", "value": 10.1, "unit": "%"},
      {"measurement": "final # of cells", "setting": "[2]; 0.1 μM RA", "value": 906000},
      {"measurement": "Cell % change", "setting": "[2]; 0.1 μM RA", "value": 3.9, "unit": "%"},
      {"measurement": "increase in cell number", "setting": "[2]; 0.01M RA", "value": 3.99},
      {"measurement": "increase in cell number compared to control", "setting": "[2]; 0.1M RA", "value": 10, "unit": "%"}
    ]}
  ]
}
